# In patent publication US20240390453A1, “PEPTIDE HAVING HAIR LOSS PREVENTION OR HAIR GROWTH PROMOTION ACTIVITY, AND USE THEREOF” (CAREGEN CO., LTD., priority 2021, published 2024):
# Columns and labels:
# [1] = system: human hair follicle dermal papilla cells (HHFDPC); test: Proliferation of dermal papilla cells (MTT, absorbance at 540 nm); format: cell-based; details: peptide 500 nM, 72 hours, FIG. 1
# Protocol: While culturing human hair follicle dermal dermal papilla cells (HHFDPC), the absorbance was measured after treatment with the peptide of the present invention to confirm whether there was an effect of promoting the proliferation of the HHFDPC dermal papilla cells.
# Specifically, HHFDPC (Sciencell, USA) was seeded at 4λ10^3 cells/well in a 96-well culture plate, cultured in MSC complete medium (mesenchymal stem cell complete media, Sciencell, USA) for 24 hours, and then the medium was replaced with serum free MSC complete medium and cultured for another 24 hours. Then, the HHFDPC was treated with the peptide of SEQ ID NO: 1 prepared in the Preparation Example at concentrations of 500 nM, 5 μM, and 50 μM, respectively, and cultured at 37° C. for 72 hours. As a positive control, minoxidil was treated at a concentration of 1 μM, and as a negative control, HHFDPC without any treatment was used. Then, 10 μl of 5 mg/mL MTT solution was added and cultured in a 37° C. CO2 incubator for 4 hours to stain the cells. After removing the medium, the cells were treated with 100 μl of DMSO and shaken for 10 minutes, and the number of HHFDPC cells was confirmed by measuring absorbance at a wavelength of 540 nm using a spectrophotometer.
# p-AKT = test: Western blotting of phosphorylated AKT in HHFDPC; format: cell-based, human; details: peptide 500 nM, 5 μM, and 50 µM, 24 hours, FIG. 2
# Protocol: (§1) First, phosphorylated forms of AKT and ERK, which act as signaling molecules related to the proliferation of HHFDPC, were confirmed through Western blotting. Specifically, HHFDPC as in [Experiment Example 1-1] above was seeded at 4λ10^5 cells/well in a 6-well culture plate, cultured in MSC complete medium (mesenchymal stem cell complete media) for 24 hours, and then the medium was replaced with serum free MSC complete medium and cultured for another 24 hours. Then, the HHFDPC was treated with the peptide of SEQ ID NO: 1 prepared in the Preparation Example at concentrations of 500 nM, 5 μM, and 50 µM, respectively, and cultured at 37° C. for 24 hours. As a positive control, minoxidil was treated at a concentration of 1 μM, and as a negative control, HHFDPC without any treatment was used. Then, Western blotting was performed to detect phosphorylated AKT and phosphorylated ERK. After washing with PBS, the cells were treated with 100 μl of lysis buffer to destroy cells, thereby obtaining cell lysate. After electrophoresis using a 10% SDS-PAGE gel, it was transferred to a PVDF membrane and blocked using 5% skim milk at room temperature for 30 minutes. […] After washing again with 0.1% PBS-T (0.1% Tween-20 in PBS) three times for 15 minutes each, p-AKT and p-ERK were detected by treatment with ECL solution (GE Healthcare, USA).
# p-ERK = test: Western blotting of phosphorylated ERK in HHFDPC; format: cell-based, human; details: peptide 500 nM, 5 μM, and 50 µM, 24 hours, FIG. 2
# Protocol: as §1
# β-catenin = test: Western blotting of β-catenin moved into the nucleus of HHFDPC; format: cell-based, human; details: HHFDPC nuclear protein, peptide 500 nM, 5 µM, and 50 μM, 24 hours, FIG. 3
# Protocol: In addition, in addition to p-AKT and p-ERK, in order to confirm the activation of β-catenin, which is known to affect cell proliferation and differentiation, whether β-catenin moved into the nucleus was confirmed through Western blotting. Specifically, the HHFDPC as in [Experiment Example 1-1] was seeded in a 6-well culture plate at an amount of 4λ10^5 cells/well, cultured in MSC complete medium (mesenchymal stem cell complete media) for 24 hours. Next, the medium was replaced with serum free MSC complete medium and cultured again for 24 hours. Then, the HHFDPC was treated with the peptide of SEQ ID NO: 1 prepared in the Preparation Example at concentrations of 500 nM, […], and 50 μM, respectively, and cultured at 37° C. for 24 hours. As a positive control, minoxidil was treated at a concentration of 1 μM, and as a negative control, HHFDPC without any treatment was used. After washing with PBS, proteins in the nucleus were isolated using a nuclear protein extraction kit (Thermo scientific, USA). After electrophoresis using a 10% SDS-PAGE gel, it was transferred to a PVDF membrane and blocked using 5% skim milk at room temperature for 30 minutes. […] After washing again with 0.1% PBS-T (0.1% Tween-20 in PBS) three times for 15 minutes each, β-catenin was detected by treatment with ECL solution (GE Healthcare, USA).
# LEF-1 = test: RT-PCR of LEF-1 expression in HHFDPC; format: cell-based, human; details: peptide 500 nM, 5 μM, 50 μM, 24 hours, FIG. 4
# Protocol: (§2) Furthermore, in order to determine whether the β-catenin moves to the nucleus and is activated to affect cell proliferation and differentiation, whether the expression of LEF-1, c-Myc and cyclin D1 (cyclin D1), which act as downstream factors, increases with β-catenin activation was confirmed through RT-PCR. Specifically, in the same manner as the previous Western blotting experiment, HHFDPC cells were cultured, treated with the peptides of the Preparation Example of the present invention at concentrations of 500 nM, 5 μM, and 50 μM, respectively, and cultured at 37° C. for 24 hours. After washing the cells with PBS, RNA was isolated by treating them with 300 μl of easy blue (intron, Korea). Then, cDNA was synthesized using a cDNA synthesis kit (enzynomics, Korea) by quantifying it with nano drop, and PCR was performed using primers for LEF-1, c-Myc and cyclin D1 (base sequences of the primer are listed in Table 2 below) and PCR premix (enzynomics, Korea). Electrophoresis was performed on a 1.5% agarose gel, and then the mRNA of LEF-1, c-Myc and cyclin D1 was detected using a band analysis system (Bio-Rad gel image system).
# c-Myc = test: RT-PCR of c-Myc expression in HHFDPC; format: cell-based, human; details: peptide 500 nM, 5 μM, 50 μM, 24 hours, FIG. 4
# Protocol: as §2
# cyclin D1 = test: RT-PCR of cyclin D1 expression in HHFDPC; format: cell-based, human; details: peptide 500 nM, 5 μM, 50 μM, 24 hours, FIG. 4
# Protocol: as §2
# [2] = system: DKK-1 protein (dickkopf-related protein 1); test: Western blotting of DKK-1 protein in DHT-treated HHFDPC; format: cell-based, human; details: HHFDPC with DHT 100 nM, peptide 500 nM, 5 μM, 50 μM, 24 hours, FIG. 5
# Protocol: DKK-1 protein (dickkopf-related protein 1) is a hair loss-related protein known to be highly expressed in individuals with hair loss, especially male pattern hair loss, and its expression is known to be promoted by hormones such as DHT (Dihydrotestosterone). Accordingly, the expression of DKK-1 protein was induced by treating HHFDPC cells with DHT together with the peptide according to the Preparation Example of the present invention, and then the expression level of DKK-1 was measured through Western blotting to determine whether there was an effect of suppressing the expression of DKK-1 protein.
# Specifically, HHFDPC as in [Experiment Example 1-1] was seeded in a 6-well culture plate at 4λ10^5 cells/well and then cultured in MSC complete medium (mesenchymal stem cell complete media) for 24 hours. Next, the medium was replaced with serum free MSC complete medium and cultured again for 24 hours. In addition, the HHFDPC was treated with the peptide of SEQ ID NO: 1 prepared in the Preparation Example at concentrations of 500 nM, 5 μM, and 50 μM, respectively, and at this time, DHT, an expression inducer of DKK-1 protein, was simultaneously treated at a concentration of 100 nM and then cultured at 37° C. for 24 hours. […] After washing again with 0.1% PBS-T (0.1% Tween-20 in PBS) three times for 15 minutes each, DKK-1 protein was detected by treatment with ECL solution (GE Healthcare, USA).
# Ha3-II = test: RT-PCR of Ha3-II expression in HHORSC; format: cell-based, human; details: peptide 500 nM, 5 μM, 50 μM, 72 hours, FIG. 6
# Protocol: (§3) Specifically, HHORSC (human hair outer root sheath cell, Sciencell, USA) was seeded in a 6-well culture plate at 4λ10^5 cells/well and then cultured in MSC complete medium (mesenchymal stem cell complete media) for 24 hours. Next, the medium was replaced with serum free MSC complete medium and cultured again for 24 hours. Then, the HHORSC was treated with the peptide of SEQ ID NO: […] in the Preparation Example at concentrations of 500 nM, 5 μM, and 50 μM, respectively, and cultured at 37° C. for 72 hours. As a positive control, EGF was treated at a concentration of 50 nM, and as a negative control, HHORSC without any treatment was used. After washing with PBS, RNA was isolated by treating with 300 μl of easy blue (intron, Korea). Then, cDNA was synthesized using a cDNA synthesis kit (enzynomics, Korea) by quantification using nano drop, and PCR was performed using primers for Ha3-II, Keratin 5, Keratin 14, and Keratin 19 (base sequences of primer are listed in Table 3 below) and PCR premix (enzynomics, Korea). Electrophoresis was performed on a 1.5% agarose gel, and the mRNAs of Ha3-II, Keratin 5, Keratin 14, and Keratin 19 were detected using a band analysis system (Bio-Rad gel image system).
# Keratin 5 = test: RT-PCR of Keratin 5 expression in HHORSC; format: cell-based, human; details: peptide 500 nM, 5 μM, 50 μM, 72 hours, FIG. 6
# Protocol: as §3
# Keratin 14 = test: RT-PCR of Keratin 14 expression in HHORSC; format: cell-based, human; details: peptide 500 nM, 5 μM, 50 μM, 72 hours, FIG. 6
# Protocol: as §3
# Keratin 19 = test: RT-PCR of Keratin 19 expression in HHORSC; format: cell-based, human; details: peptide 500 nM, 5 μM, 50 μM, 72 hours, FIG. 6
# Protocol: as §3
# MSX2 = test: RT-PCR of MSX2 expression in HHGMC; format: cell-based, human; details: peptide 500 nM, 5 μM, 50 μM, 72 hours, FIG. 7
# Protocol: (§4) Specifically, HHGMC (human hair germinal matrix cell, Sciencell, USA) was seeded in a 6-well culture plate at 4λ10^5 cells/well and then cultured in MSC complete medium (mesenchymal stem cell complete media) for 24 hours. Next, the medium was replaced with serum free MSC complete medium and cultured again for 24 hours. Then, the HHGMC was treated with the peptide of SEQ ID NO: 1 prepared in the Preparation Example at concentrations of 500 nM, 5 μM, and 50 μM, respectively, and cultured at 37° C. for 72 hours. As a positive control, EGF was treated at a concentration of 50 nM, and as a negative control, HHGMC without any treatment was used. After washing with PBS, RNA was isolated by treating with 300 μl of easy blue (intron, Korea). Next, cDNA was synthesized using a cDNA synthesis kit (enzynomics, Korea) by quantification using nano drop, and PCR was performed using primers for MSX2 and FOXN1 (base sequences of primer are listed in Table 4 below) and PCR premix (enzynomics, Korea). Electrophoresis was performed on a 1.5% agarose gel, and mRNA of MSX2 and FOXN1 was detected using a band analysis system (Bio-Rad gel image system).
# FOXN1 = test: RT-PCR of FOXN1 expression in HHGMC; format: cell-based, human; details: peptide 500 nM, 5 μM, 50 μM, 72 hours, FIG. 7
# Protocol: as §4
substance,measurement,setting,value
HLPKPI [peptide of the present invention],"absorbance (number of HHFDPC cells, proliferation) compared to the untreated control group","[1]; 5 μM, 50 μM, MTT, 540 nm",higher
same,proliferation promotion effect compared to the positive control group,"[1]; 5 μM, and 50 μM vs minoxidil 1 μM",better proliferation promotion effect than the positive control group
same,phosphorylation of AKT (p-AKT) compared to the control group not treated with the peptide,p-AKT,increased
same,phosphorylation of ERK (p-ERK) compared to the control group not treated with the peptide,p-ERK,increased
same,concentration dependence of β-catenin activation,β-catenin,further promoted depending on the concentration
same,"migration of β-catenin to the nucleus due to activation, compared to the control group not treated with the peptide",β-catenin; Western blotting,increased
same,amount of LEF-1 mRNA compared to the control group without any treatment,LEF-1,increased further
same,amount of c-Myc mRNA compared to the control group without any treatment,c-Myc,increased further
same,amount of cyclin D1 mRNA compared to the control group without any treatment,cyclin D1,increased further
same,concentration dependence of the decrease of DHT-increased DKK-1 expression,[2],decreased again depending on the concentration
same,amount of DKK-1 protein compared to the negative control group (DHT only),[2]; Western blotting,reduced
same,amount of Ha3-II mRNA compared to the control group without treatment,Ha3-II,increased further
same,amount of Keratin 5 mRNA compared to the control group without treatment,Keratin 5,increased further
same,amount of Keratin 14 mRNA compared to the control group without treatment,Keratin 14,increased further
same,amount of Keratin 19 mRNA compared to the control group without treatment,Keratin 19,increased further
same,amount of MSX2 mRNA compared to the untreated control group,MSX2,increased further
same,amount of FOXN1 mRNA compared to the untreated control group,FOXN1,increased further
